Data published in US20200392161A1, “SHP2 PHOSPHATASE INHIBITORS AND METHODS OF USE THEREOF” (Relay Therapeutics, Inc., priority 2018, published 2020).
Structures can show the parent of a compound that is named as a salt.

These compounds were tested against T1, SHP2 (Homo sapiens, UniProt Q06124) (assay: SHP2 allosteric inhibition assay (DiFMUP prompt fluorescence)). Details: Table 1; 0.25 nM SHP2, 0.5 μM IRS1_pY1172(dPEG8)pY1222 peptide, DiFMUP 100 μM.
T1 sequence (Q06124 1-593): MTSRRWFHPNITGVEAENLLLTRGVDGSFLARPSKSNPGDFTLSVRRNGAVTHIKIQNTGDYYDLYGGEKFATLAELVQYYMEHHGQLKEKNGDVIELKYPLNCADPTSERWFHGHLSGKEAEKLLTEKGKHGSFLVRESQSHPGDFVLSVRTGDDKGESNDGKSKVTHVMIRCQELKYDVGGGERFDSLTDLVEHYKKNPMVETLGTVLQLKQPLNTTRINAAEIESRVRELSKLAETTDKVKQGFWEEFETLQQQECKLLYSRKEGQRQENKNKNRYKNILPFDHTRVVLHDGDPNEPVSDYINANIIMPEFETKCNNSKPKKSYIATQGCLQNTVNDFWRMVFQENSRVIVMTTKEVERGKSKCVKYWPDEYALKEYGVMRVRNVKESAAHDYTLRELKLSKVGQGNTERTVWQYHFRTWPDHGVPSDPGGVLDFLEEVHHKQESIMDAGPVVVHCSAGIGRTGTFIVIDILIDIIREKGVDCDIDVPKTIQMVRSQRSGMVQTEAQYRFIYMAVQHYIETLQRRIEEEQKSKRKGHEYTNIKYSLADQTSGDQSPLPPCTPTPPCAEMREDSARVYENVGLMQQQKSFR
Assay type: biochemical
Source text: SHP2 Allosteric Inhibition Assay.
SHP2 is allosterically activated through binding of bis-tyrosyl-phosphorylated peptides to its Src Homology 2 (SH2) domains. The latter activation step leads to the release of the auto-inhibitory interface of SHP2, which in turn renders the SHP2 protein tyrosine phosphatase (PTP) active and available for substrate recognition and reaction catalysis. The catalytic activity of SHP2 was monitored using the surrogate substrate DiFMUP in a prompt fluorescence assay format.
The inhibitor dose response curves were analyzed using normalized IC50 regression curve fitting with control based normalization.

Row | IC50 | SMILES
1 | < 5 µM | CC1(N)CCCN(c2nn3c(N)c(-c4cccc(Cl)c4Cl)nc3s2)C1 (centres unmarked) [Compound A1, 2-(3-amino-3-methylpiperidin-1-yl)-6-(2,3-dichlorophenyl)imidazo[2,1-b][1,3,4]thiadiazol-5-amine formate]
2 | 5 to 20 µM | CC1(CN)CCN(c2nn3cc(-c4cccc(Cl)c4Cl)nc3s2)CC1 [Compound A2, (1-(6-(2,3-dichlorophenyl)imidazo[2,1-b][1,3,4]thiadiazol-2-yl)-4-methylpiperidin-4-yl)methanamine formate]
3 | < 5 µM | Nc1c(-c2cccc(Cl)c2Cl)nc2sc(N3C[C@@H]4[C@@H](N)[C@@H]4C3)nn12 [Compound A3]
4 | > 20 µM | CC1(N)CCN(c2nn3c(N)c(-c4cccc(Cl)c4Cl)nc3s2)CC1 [Compound A4, 2-(4-amino-4-methylpiperidin-1-yl)-6-(2,3-dichlorophenyl)imidazo[2,1-b][1,3,4]thiadiazol-5-amine formate]
5 | < 5 µM | CC1(CN)CCN(c2nn3c(N)c(-c4cccc(Cl)c4Cl)nc3s2)C1 (centres unmarked) [Compound A5, 2-(3-(aminomethyl)-3-methylpyrrolidin-1-yl)-6-(2,3-dichlorophenyl)imidazo[2,1-b][1,3,4]thiadiazol-5-amine]
6 | 5 to 20 µM | CC1(CN)CCN(c2nn3c(N)c(-c4ccccc4Cl)nc3s2)C1 (centres unmarked) [Compound A6, 2-(3-(aminomethyl)-3-methylpyrrolidin-1-yl)-6-(2-chlorophenyl)imidazo[2,1-b][1,3,4]thiadiazol-5-amine]
7 | < 5 µM | Cc1c(-c2ccccc2Cl)nc2sc(N3CCC(C)(CN)CC3)nn12 [Compound A7, (1-(6-(2-chlorophenyl)-5-methylimidazo[2,1-b][1,3,4]thiadiazol-2-yl)-4-methylpiperidin-4-yl)methanamine formate]
8 | > 20 µM | CC1(CN)CCN(c2nn3cc(C(=O)N4CCCc5ncccc54)nc3s2)C1 (centres unmarked) [Compound A8, (2-(3-(aminomethyl)-3-methylpyrrolidin-1-yl)imidazo[2,1-b][1,3,4]thiadiazol-6-yl)(3,4-dihydro-1,5-naphthyridin-1(2H)-yl)methanone formate]
9 | 5 to 20 µM | CC1(CN)CCN(c2nn3c(N)c(-c4cccc(Cl)c4Cl)nc3s2)CC1 [Compound A9, 2-(4-(aminomethyl)-4-methylpiperidin-1-yl)-6-(2,3-dichlorophenyl)imidazo[2,1-b][1,3,4]thiadiazol-5-amine formate]
10 | < 5 µM | Cc1c(-c2ccccc2Cl)nc2sc(N3CCC(C)(CN)C3)nn12 (centres unmarked) [Compound A10, (1-(6-(2-chlorophenyl)-5-methylimidazo[2,1-b][1,3,4]thiadiazol-2-yl)-3-methylpyrrolidin-3-yl)methanamine formate]
11 | < 5 µM | Cc1c(-c2ccccc2Cl)nc2sc(N3CCC(C)(N)C3)nn12 (centres unmarked) [Compound A11, 1-(6-(2-chlorophenyl)-5-methylimidazo[2,1-b][1,3,4]thiadiazol-2-yl)-3-methylpyrrolidin-3-amine formate]
12 | > 20 µM | Nc1c(-c2cccc(Cl)c2Cl)nc2sc(N3CCNCC3)nn12 [Compound A12, 6-(2,3-dichlorophenyl)-2-(piperazin-1-yl)imidazo[2,1-b][1,3,4]thiadiazol-5-amine]

Same assay, conditions: Table 2; 0.25 nM SHP2, 0.5 μM IRS1_pY1172(dPEG8)pY1222 peptide, DiFMUP 100 μM

Row | IC50 | SMILES
13 | < 100 µM | CC1(N)CCN(c2nc(N)c(-c3cccc(Cl)c3Cl)s2)CC1 [Compound B1, 2-(4-amino-4-methyl-1-piperidyl)-5-(2,3-dichlorophenyl)thiazol-4-amine, dihydrochloride]
14 | > 100 µM | CC1(CN)CCN(c2ncc(C(=O)N3CCCc4ncccc43)s2)C1 (centres unmarked) [Compound B2, (2-(3-(aminomethyl)-3-methylpyrrolidin-1-yl)thiazol-5-yl)(3,4-dihydro-1,5-naphthyridin-1(2H)-yl)methanone]
15 | > 100 µM | CC1(CN)CCN(c2ncc(-c3ccccc3Cl)s2)C1 (centres unmarked) [Compound B3, (1-(5-(2-chlorophenyl)thiazol-2-yl)-3-methylpyrrolidin-3-yl)methanamine formate]
16 | > 100 µM | Cc1nc(N2CCC(C)(CN)C2)sc1-c1ccccc1Cl (centres unmarked) [Compound B4, ((1-(5-(2-chlorophenyl)-4-methylthiazol-2-yl)-3-methylpyrrolidin-3-yl)methanamine formate]

Same assay, conditions: Table 3; 0.25 nM SHP2, 0.5 μM IRS1_pY1172(dPEG8)pY1222 peptide, DiFMUP 100 μM

Row | IC50 | SMILES
17 | < 500 µM | CC1(N)CCN(C(=O)c2csc(-c3ccccc3Cl)n2)CC1 [Compound C1, (4-amino-4-methylpiperidin-1-yl)(2-(2-chlorophenyl)thiazol-4-yl)methanone formate]
18 | < 500 µM | O=C(O)c1csc(-c2cccc3ccccc23)n1 [Compound C2]
19 | 500 to 1000 µM | O=C(Nc1cc(C(F)(F)F)cc(C(F)(F)F)c1)c1csc(-c2cccc(Cl)c2Cl)n1 [Compound C3]
20 | < 500 µM | COc1cc(-c2nc(CSc3nncs3)cs2)ccc1O [Compound C4]
21 | 500 to 1000 µM | O=C(O)c1csc(-c2ccc(Cl)cc2Cl)n1 [Compound C5]
22 | 500 to 1000 µM | COc1ccc(-c2nc(CSc3nnnn3C)cs2)cc1OC [Compound C6]
23 | 500 to 1000 µM | COc1ccc(-c2nc(CSc3ncccn3)cs2)cc1OC [Compound C7]
24 | 500 to 1000 µM | c1coc(-c2nc(CSc3nncs3)cs2)c1 [Compound C8]
25 | 500 to 1000 µM | COc1cccc(-c2nc(CSc3nncs3)cs2)c1 [Compound C9]
26 | 500 to 1000 µM | COc1ccc(-c2nc(CSc3nnc(C4CC4)n3N)cs2)cc1OC [Compound C10]
27 | < 500 µM | COc1cc(-c2nc(CN(C)c3ccc4c(c3)OCO4)cs2)ccc1O [Compound C11]
28 | < 500 µM | COc1ccc(-c2nc(CSc3nccn3C3CC3)cs2)cc1OC [Compound C12]
29 | < 500 µM | c1nnc(SCc2csc(-c3ccc4c(c3)OCO4)n2)s1 [Compound C13]
30 | < 500 µM | COCCn1cnnc1SCc1csc(-c2ccc(OC)c(OC)c2)n1 [Compound C15]
31 | < 500 µM | COc1ccc(-c2nc(CSc3cccc[n+]3[O-])cs2)cc1OC [Compound C16]
32 | 500 to 1000 µM | COc1cc(-c2nc(CSc3nnc(-c4ccccc4C)n3C)cs2)ccc1O [Compound C18]
33 | 500 to 1000 µM | COc1ccc(-c2nc(CSc3nnc(NCC4CCCO4)s3)cs2)cc1OC (centres unmarked) [Compound C19]
34 | < 500 µM | COc1cc(-c2nc(CSc3nncn3C)cs2)ccc1O [Compound C20]
35 | < 500 µM | COc1cc(-c2nc(Cn3cccc(C(F)(F)F)c3=O)cs2)ccc1O [Compound C21]
36 | > 1000 µM | COc1cc(-c2nc(CN3CCOCC3C)cs2)ccc1O (centres unmarked) [Compound C22]
37 | > 1000 µM | CCOc1ccc(-c2nc(CSc3nncs3)cs2)cc1OC [Compound C23]
38 | > 1000 µM | c1cc(-c2nc(CSc3nncs3)cs2)co1 [Compound C24]

Row | IC50 | SMILES
39 | > 1000 µM | COc1ccc(-c2nc(CSc3nnnn3C3CC3)cs2)cc1OC [Compound C25]
40 | > 1000 µM | Cn1cnnc1SCc1csc(-c2ccc3c(c2)OCO3)n1 [Compound C26]
41 | > 1000 µM | Clc1ccc(-c2nc(CSc3nncs3)cs2)cc1 [Compound C27]
42 | > 1000 µM | COc1ccc(-c2nc(CSc3nncs3)cs2)cc1 [Compound C28]
43 | > 1000 µM | COc1ccc(-c2nc(CSc3nncn3-c3ccccc3)cs2)cc1OC [Compound C29]
44 | > 1000 µM | COc1ccc(-c2nc(CSc3nnc(-c4ccco4)o3)cs2)cc1OC [Compound C30]
45 | > 1000 µM | CCC(=O)N(c1nnc(SCc2csc(-c3ccc(OC)c(OC)c3)n2)s1)C1CC1 [Compound C31]
46 | > 1000 µM | COc1ccc(-c2nc(CSc3nc4nc(C)cc(C)n4n3)cs2)cc1OC [Compound C32]
47 | > 1000 µM | C=C(C)CSc1nnc(SCc2csc(-c3ccc(OC)c(OC)c3)n2)s1 [Compound C33]
48 | > 1000 µM | COc1cc(-c2nc(CSc3nnc(-c4ccc(C)cc4C)o3)cs2)ccc1O [Compound C34]
49 | > 1000 µM | CCOc1ccc(-c2nc(CSc3nnc(C)s3)cs2)cc1OC [Compound C36]
50 | > 1000 µM | COc1cc(-c2nc(CN(C)Cc3ccco3)cs2)ccc1O [Compound C37]
51 | > 1000 µM | COc1ccc(-c2nc(CSc3nnc(N(C(C)=O)C4CC4)s3)cs2)cc1OC [Compound C38]
52 | > 1000 µM | COc1cccc(Nc2nnc(SCc3csc(-c4ccc(OC)c(OC)c4)n3)s2)c1 [Compound C39]
53 | > 1000 µM | c1ccc(-c2nc(CSc3nncs3)cs2)cc1 [Compound C40]
54 | > 1000 µM | O=C(O)Cc1csc(-c2cccc(Cl)c2Cl)n1 [Compound C41]
55 | > 1000 µM | O=C(O)c1csc(-c2ccccc2Cl)n1 [Compound C42]
56 | > 1000 µM | O=C(O)c1csc(-c2ncccc2Cl)n1 [Compound C43]
57 | > 1000 µM | Cc1nc(-c2ccc(C(F)(F)F)cc2)sc1C(=O)N1CC[C@@H](N)C1 [Compound C44]
58 | > 1000 µM | CNCC1CCN(C(=O)Cc2csc(-c3ccc(Cl)cc3Cl)n2)C1 (centres unmarked) [Compound C45]
59 | > 1000 µM | COc1ccccc1-c1nc(C(=O)N2CCCC(C(C)N)C2)cs1 (centres unmarked) [Compound C46]
